# Tests used:
# L-FICD generation = test: Screening of 53 protease inhibitors from a protease library for L-FICD generation; assay type: cell-based
# Text: To identify the protease(s) responsible for cleavage of H-FICD in an unbiased manner, we performed a screening of 53 protease inhibitors using a protease library. The best hits associated with the inhibition of L-FICD generation were MDL28170 and PD150606—two calpain inhibitors—along with MMP inhibitors and γ-secretase inhibitors. Calpain is the family of calcium-dependent cytosolic cysteine proteases expressed ubiquitously in mammals and many other organisms (Pfaff, M., Du, X. & Ginsberg, M. H. Calpain cleavage of integrin beta cytoplasmic domains. FEBS Lett 460, 17-22 (1999)), and calpain-dependent cleavages contribute to modulating various cellular functions such as apoptosis, proliferation and migration (Deshpande, R. V. et al. Calpain expression in lymphoid cells. Increased mRNA and protein levels after cell activation. J Biol Chem 270, 2497-2505 (1995). Svensson, L. et al. Calpain 2 controls turnover of LFA-1 adhesions on migrating T lymphocytes. PloS one 5, e15090, doi:10.1371/journal.pone.0015090 (2010).). […] Since calpain is activated by calcium, we examined if calcium signaling could compensate for M-CSF signaling to generate FICDs. In the absence of c-FMS signaling, calcium signaling was able to promote the cleavage of […] in the nucleus, and […] reversed the effect of calcium signaling on L-FICD processing (FIG.10C). […]
# [1] = system: FICD (mem, H-FICD, L-FICD); test: FICD in membrane, cytoplasmic and nuclear fractions of human OCPs, immunoblot; assay type: cell-based
# Procedure: (a) Human CD14+ cells were cultured with M-CSF (20 ng/ml) for 8 hours to induce early signals and then DAPT (10uM) was added for 2 days. Protein expression of c-FMS, Na+K+ pump, Lamin B1 and α-tubulin, as determined by immunoblot. ME; membrane extracts, CE; cytoplasmic extracts, and NE; nuclear extracts. (b) Immunohistochemistry of DAPI and c-FMS [middle]. […] Scale: 200×. (c) Cells were starved for three hours and then stimulated with M-CSF for the indicated times. (d and e) Cells were treated with Imatinib (0.3 μM, d) or c-FMS blocking antibody (5 μg) prior to the addition of M-CSF. Protein expression of FICD was measured by immunoblot. Lamin B1 and α-tubulin were used as controls for nuclear and cytoplasmic fractions, respectively. (f) Human CD14+ cells were cultured with M-CSF (20 ng/ml) for 8 hours to induce early signals and then MDL 28170(5 uM). Immunoblot with anti c-FMS and Lamin B1 antibodies. (g and h) Calpain 1, 5, and 6 were knocked down with siRNAs. Cells were cultured with M-CSF for 12 hours. (g) Efficiency of knockdown of Calpain 1, 5, and 6. (h) Immunoblot of c-FMS and Lamin B1. All data are shown as mean±SEM. *,p<0.05 by two-tailed, unpaired t-test (g). Representative results from at least three independent experiments.
# (A and B) Human CD14+ cells were cultured with M-CSF (20 ng/ml) for 8 hours to induce early signals and then (A) MDL 28170(0, 1, 2, 5 uM) or (B) PD150606 (0, 2, 5 uM) was added for 2 days. Immunoblot with anti c-FMS and α-tubulin antibodies in whole lysates(n=3). (C) Immunoblot of nuclear lysates with c-FMS and Lamin B1 antibodies. Cells were cultured with M-CSF for 12 hours, and then M-CSF was removed. Cells were subsequently treated with or without CaCl2 (10 mM) for an additional 24 hours. (D) Osteoclastogenesis assay. Human CD14+ cells were cultured with M-CSF, RANKL and MDL28170 for 4 days. […] Black scale bar is 100 μm. […] First two calpain cleavage sites in cytoplasmic domains of c-FMS were used for FICD constructs. (F) A schematic diagram of a FICD construct. Representative results from at least three independent experiments.
# Whole cell extracts were prepared by lysis in buffer containing 1× Lamin sample buffer (Bio-rad) and 2-Mercaptoethanol (Sigma) or RIPA buffer (Sigma). The cell membrane-permeable protease inhibitor, Pefablock (1 mM), was added immediately prior to harvest cells. The membrane proteins were extracted with Mem-PER™ Plus Membrane Protein Extraction Kit (Thermorfisher scientific; 89842) according to manufacturer's instructions. To extracts of nucleus protein, cells were incubated in buffer A (10 mM Hepes, pH 7.9, 1.5 mM MgCl2, 10 mM KCl, 0.1 mM EDTA, 0.1 mM EGTA, proteinase inhibitor cocktail (Complete, Roche) and 1 mM DTT) for 15 min at 4° C. NP-40 was added to a final concentration of 0.5%. Nucleus was collected by centrifugation (5000 rpm, 5 min). The pellets were lysed by Bioruptor-ultrasonicator (UCD400, Diagenode) in buffer B (20 mM Hepes, pH 7.9, 0.4M NaCl, 10 mM KCl, 1 mM EDTA, 1 mM EGTA, 10% Glycerol, proteinase inhibitor cocktail and 1 mM DTT) and collected the supernatant by centrifugation (12,000 rpm, 10 min). The protein concentration of nuclear extracts was quantitated using the Bradford assay (Bio-Rad; 5000001). For immunoblot, proteins were separated on 7.5 or 10% SDS-PAGE gels, transferred to polyvinylidene difluoride membranes (PVDF, Millipore; ISEQ00010), and detected by antibodies as listed in the figure legends.
# [2] = MDL 28170 5 uM after 8 hours M-CSF, nuclear extracts
substance,measurement,setting,value
MDL28170,inhibition of L-FICD generation (hit in screening),L-FICD generation,best hits
same,effect of calcium signaling on L-FICD processing,"[1]; M-CSF removed, CaCl2 (10 mM) for 24 hours, nuclear lysates",reversed
same,enrichment of L-FICD versus H-FICD in the nucleus,[1]; [2],shifted the enrichment of L-FICD to H-FICD in the nucleus
same,translocation of FICD into the nucleus,[1]; [2],did not interfere

# — patent US20220370463A1, “STABILIZED C-FMS INTRACELLULAR FRAGMENTS (FICD) PROMOTE OSTEOCLAST DIFFERENTIATION AND ARTHRITIC BONE EROSION” (New York Society for the Relief of the Ruptured and …, priority 2019, published 2022)
